Reference: the METLIN SMRT retention time set (Domingo-Almenara et al. 2019)

Test: gradient 5% acetonitrile 3 min, to 50% in 2 min, to 85% in 15 min, held 3 min, 100 µL/min
Conditions: column: Zorbax Extend-C18 2.1 x 50 mm; eluents: water / acetonitrile, 0.1% formic acid
Summary of the method: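 Mixtures of ~100 pure standards were chromatographed on a Zorbax Extend-C18 column (2.1 × 50 mm, 1.8 μm) at 100 μL/min using water and acetonitrile, each with 0.1% formic acid. Detection used a quadrupole time-of-flight mass spectrometer in positive and negative ionization mode, and data collection spanned 3 months. Retention time was obtained from adduct peaks picked computationally and each checked manually.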

In order of rising RP-LC retention time:
1. O=C(NCCCN1CCCC1=O)c1ccc2ncnc(N3CCCC3)c2c1  570 s
2. CCOC(=O)c1c(C)[nH]c(C(=O)N2CCCC(C(=O)NCCCN3CCCC3)C2)c1C (stereo unspecified)  589 s
3. Cc1nn(C(C)C(=O)NCCCN2CCN(C)CC2)c(=O)c2c(C)n(-c3ccccc3)nc12 (stereo unspecified)  592 s
4. CC(C)CN1CCn2cc(C(=O)NCc3cc(F)ccc3F)nc2C1  608 s
5. Cc1ccc(S(=O)(=O)N2CCc3nc[nH]c3C2)cc1C  611 s
6. CCCCNc1ncc(C(=O)O)c(-c2ccncc2)n1  612 s
7. CCC(O)c1nc2ccccc2n1CC(=O)N(C)c1ccccc1 (stereo unspecified)  624 s
8. CS(=O)(=O)Nc1cccc(NC(=O)c2ccc(N3CCOCC3)nn2)c1  633 s
9. CCCNC(=O)C1CCN(c2ccc(SCC(=O)Nc3ccc(C(=O)OC)cc3)nn2)CC1  638 s
10. CN(C)C(=O)c1n[nH]c2c1CN(C(=O)c1cccc(Cl)c1)CC2  642 s
11. O=C(NCc1ccc(N2CCOCC2)nc1)c1ccc(C(F)(F)F)cc1  642 s
12. CCN(CC)C(=O)Cn1cc(C(=O)C(=O)N2CCc3ccccc3C2)c2ccccc21  644 s
13. Cc1nnc(Cc2ccccc2)c2n[nH]c(C)c12  647 s
14. COc1cccc(NC(=O)Cn2c(N3CCCCC3)nc(C)cc2=O)c1  658 s
15. Cc1cccc(CNS(=O)(=O)c2cc3n(c2)CCCNC3=O)c1  677 s
16. O=C(COc1ccccc1)NCc1c(-c2ccccc2)nc2n1CCS2  678 s
17. COCCc1noc([C@@H]2CC(F)(F)CN2C(=O)c2ocnc2C)n1  689 s
18. CCCn1ncc(N2CCC(C(=O)Nc3ccc(OC)c(OC)c3)CC2)cc1=O  693 s
19. COc1ccc2c(c1)C1(CCN(C(=O)NC(C)(C)C)C1)C(=O)N2 (stereo unspecified)  695 s
20. CCN1C(=O)c2cccnc2Sc2cc(CNC(=O)c3ccco3)ccc21  701 s
21. CCn1c(=O)c(=O)n(CC(=O)NC(C)Cc2ccco2)c2cccnc21 (stereo unspecified)  711 s
22. CCn1c(C2CCN(C(=O)Nc3cccc(Cl)c3)CC2)cc(=O)n2nccc12  718 s
23. Cc1ccc(NC(=O)N2CCC(N(C(=O)C3CC3)C3CCOCC3)CC2)c(C)c1  722 s
24. O=C(Cc1ccc(F)cc1)Nc1cc(-c2cccnc2)no1  730 s
25. COc1ccc(-c2ccc3nc(N4CCC(C(=O)NC5CC5)CC4)sc3n2)cc1  746 s
26. Cn1ccc2c(cc(C(=O)NCc3ccc(C(F)(F)F)cc3)n2C)c1=O  754 s
27. Cc1ccc(CNC(=O)c2ncn3c2C(=O)N(C2CC2)C(C)(C(=O)NCc2ccc(F)cc2)C3)cc1 (stereo unspecified)  799 s
28. O=C(NC1CCc2ccccc21)C1CCCN(c2ncnc3c2oc2ccccc23)C1 (stereo unspecified)  816 s
29. COc1ccccc1-c1noc(C2CCCN2C(=O)NC2CCCCC2)n1 (stereo unspecified)  858 s
30. COc1ccc(C2CC(=O)N(c3ccc(Cl)cc3)C(=O)C2)cc1OC  859 s
31. CCOc1ccc(S(=O)(=O)N2CCCC(C(=O)NCCc3ccc(OC)c(OC)c3)C2)cc1 (stereo unspecified)  884 s
32. CC(C)C(=O)Nc1cccc(N2CC(C(=O)Nc3ccc(C(C)C)cc3)CC2=O)c1 (stereo unspecified)  886 s
33. Cc1cc(=O)n(CC(=O)Nc2cccc(C)c2C)c(NCCCc2ccccc2)n1  892 s
34. CCn1c(=O)c2ccccc2n(Cc2nc(-c3ccccc3OC)no2)c1=O  909 s
35. COC(=O)c1cc2c(=O)n(-c3ccc(Cl)cc3Cl)ccc2nc1C  928 s
36. O=C(Nc1ccccc1Br)N[C@@H]1CCN(c2ccc(C(F)(F)F)cn2)C1  937 s
37. Clc1cccc(-c2nc3ccc(Cl)cn3c2Nc2ccc3c(c2)OCCO3)c1  939 s
38. Cc1ccc(NC(=O)c2nc(C)oc2C)c(F)c1  946 s
39. COc1ccc(Cl)cc1S(=O)(=O)N(C)C1CCc2nn(CC3CC3)c(=O)n2CC1 (stereo unspecified)  958 s
40. CN(CCc1noc(-c2ccc(Cl)cc2)n1)C(=O)COc1ccc(F)cc1  993 s
41. O=C([C@@H]1C[C@H](F)CN1S(=O)(=O)c1ccc(F)c(Cl)c1)N1CCc2ccccc2C1  997 s
42. Cc1ccccc1-n1ccn(Cc2nc(-c3ccc(C(C)(C)C)cc3)no2)c(=O)c1=O  1050 s
43. Cc1ccc(NC(=O)N2c3ccccc3CC2c2nc(C3CC3)no2)c(C)c1 (stereo unspecified)  1080 s
44. Cc1cccc(-c2noc(Cn3c(=O)n(Cc4ccco4)c(=O)c4ccccc43)n2)c1  1090 s
45. O=c1c2cc(-c3ccccc3Cl)nn2cnn1Cc1nc(-c2ccc(F)cc2)no1  1140 s
46. Cc1ccccc1-c1nc(-c2cccc(-c3ccnn3C)c2)no1  1220 s
